Measurements published in US8030341B2, “Dmt-derivative compounds and related compositions and methods of use” (priority 2005, dated 2011).
Counter-ions that a name gives are not always drawn. Like-named read-outs stand apart in the source and are kept apart here. Non-standard residues stand in square brackets, D forms with d. Residues, ends and D or L forms follow the SMILES beside them. Dmt = Cc1cc(O)cc(C)c1C[C@H](N)C(=O)O; Tic = O=C(O)[C@@H]1Cc2ccccc2CN1

Experiments:
δ-opioid receptor [1] = biological target: T1, δ-opioid receptor (Mus musculus, UniProt P32300); test: mouse vas deferens (MVD) bioassay; format: cell-based; conditions: for MVD Antagonist pA2: versus deltorphin II as agonist
T1 construct: from tissue; host or cells: isolated mouse vas deferens
Source text: Bioorg. Med. Chem., 11: 675-678 (2003). The isolated tissues were suspended in organ baths containing balanced salt solutions in a physiological buffer, pH 7.5. […]

μ-opioid receptor [2] = biological target: T2, μ-opioid receptor (Rattus norvegicus, UniProt P33535); test: opioid receptor binding competition assay, rat brain P2 synaptosomal membranes (μ); conditions: for Ki(δ)/Ki(μ): selectivity ratio
T2 construct: from tissue; host or cells: rat brain P2 synaptosomal membranes (Sprague-Dawley)
Protocol: (§1) Synaptosomes were preincubated to remove endogenous opioids, washed in excess ice-cold buffer containing protease inhibitor and stored in a glycerol-containing buffer with protease inhibitor at −80° C. as described in Lazarus et al., J. Med. Chem. 34:1350-55 (1991). […] After incubation, the radiolabeled membranes were rapidly filtered on Whatman GF/C glass fiber filters presoaked in 0.1% polyethylenimine in order to optimize the signal-to-noise ratio, washed with ice-cold BSA buffer, and dried at 75-80° C. Radioactivity was determined using EcoLume (ICN, Costa Mesa, Calif.). All compounds were analyzed in duplicate using 5-8 peptide dosages and several synaptosomal preparations in independent repetitions to ensure statistical significance. The affinity constants (Ki) were calculated according to Cheng and Prusoff (Cheng et al., Biochem. Pharmacol., 22: 3099-3108 ([…])).

μ-opioid receptor [3] = biological target: μ-opioid receptor (Cavia porcellus, UniProt P97266); test: guinea pig ileum (GPI) bioassay; format: cell-based; conditions: for GPI Antagonist pA2 (nM), value in parentheses (Ke): versus endomorphin-2, antilog of pA2; for GPI Antagonist pA2: versus endomorphin-2 as agonist
Protocol: The myenteric plexus longitudinal muscle preparations (2-3 cm segments) from the small intestine of male Hartley strain guinea pigs (GP1) measured μ-opioid receptor agonism and a single mouse vas deferens (MVD) was used to determine δ-opioid receptor agonism as described in Sasaki et al. Bioorg. […] The isolated tissues were suspended in organ baths containing balanced salt solutions in a physiological buffer, pH 7.5. Agonists were tested for the inhibition of electrically evoked contraction and expressed as IC50 (nM) obtained from the dose-response curves.

δ-opioid receptor [4] = biological target: T3, δ-opioid receptor (Rattus norvegicus, UniProt P33533); test: opioid receptor binding competition assay, rat brain P2 synaptosomal membranes (δ)
T3 construct: from tissue; host or cells: rat brain P2 synaptosomal membranes (Sprague-Dawley)
Protocol: as §1

[5] = Table 2, versus deltorphin II, antilog of pA2
[6] = Table 2, inhibition of electrically evoked contraction, read-out: MVD agonist IC50
[7] = Table 1, rat brain synaptosomes, footnote b: versus [3H]DPDPE, read-out: Ki(μ)
[8] = Table 2, inhibition of electrically evoked contraction, read-out: GPI agonist IC50
[9] = Table 1, rat brain synaptosomes, footnote a: versus [3H]DAMGO, read-out: Ki(δ)

T2 sequence (P33535 whole entry): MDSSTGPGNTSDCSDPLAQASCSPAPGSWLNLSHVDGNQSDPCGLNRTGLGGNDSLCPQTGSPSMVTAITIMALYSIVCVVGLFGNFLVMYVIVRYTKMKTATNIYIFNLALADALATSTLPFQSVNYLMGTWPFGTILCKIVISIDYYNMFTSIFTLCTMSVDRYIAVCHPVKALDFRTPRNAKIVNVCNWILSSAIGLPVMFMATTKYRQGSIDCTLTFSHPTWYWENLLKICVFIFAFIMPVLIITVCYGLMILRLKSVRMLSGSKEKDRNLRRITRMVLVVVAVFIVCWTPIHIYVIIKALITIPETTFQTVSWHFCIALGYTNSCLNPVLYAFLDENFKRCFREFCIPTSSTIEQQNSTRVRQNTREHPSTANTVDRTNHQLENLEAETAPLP
T3 sequence (P33533 whole entry): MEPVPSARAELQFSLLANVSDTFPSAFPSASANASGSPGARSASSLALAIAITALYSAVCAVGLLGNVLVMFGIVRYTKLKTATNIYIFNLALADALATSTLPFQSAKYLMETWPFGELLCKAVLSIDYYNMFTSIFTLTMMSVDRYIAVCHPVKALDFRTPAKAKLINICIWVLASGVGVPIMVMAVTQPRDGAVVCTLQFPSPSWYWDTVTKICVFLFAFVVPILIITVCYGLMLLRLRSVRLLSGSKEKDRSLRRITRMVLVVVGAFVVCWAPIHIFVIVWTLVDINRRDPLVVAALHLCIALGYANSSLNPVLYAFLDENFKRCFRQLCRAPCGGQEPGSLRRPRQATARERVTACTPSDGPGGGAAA
T1 sequence (P32300 whole entry): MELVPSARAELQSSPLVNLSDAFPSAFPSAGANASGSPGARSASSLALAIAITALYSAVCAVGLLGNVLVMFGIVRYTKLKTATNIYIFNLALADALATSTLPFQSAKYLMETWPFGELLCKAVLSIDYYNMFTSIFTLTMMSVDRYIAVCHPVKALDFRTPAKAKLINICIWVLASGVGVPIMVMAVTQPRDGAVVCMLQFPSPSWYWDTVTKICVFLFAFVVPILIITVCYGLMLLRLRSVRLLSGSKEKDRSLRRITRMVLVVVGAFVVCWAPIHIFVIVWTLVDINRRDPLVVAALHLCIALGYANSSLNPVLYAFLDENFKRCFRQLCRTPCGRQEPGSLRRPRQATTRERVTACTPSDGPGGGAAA
Sequence of μ-opioid receptor (Cavia porcellus, UniProt P97266) (P97266 whole entry, looked up): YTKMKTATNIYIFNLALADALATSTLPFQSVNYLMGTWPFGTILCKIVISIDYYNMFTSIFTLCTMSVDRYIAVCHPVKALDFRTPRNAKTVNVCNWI

C=CCN[C@@H](Cc1c(C)cc(O)cc1C)C(=O)NCCCc1[nH]c(=O)c(CCCNC(=O)[C@H](Cc2c(C)cc(O)cc2C)NCC=C)nc1C [Compound 32, Bis-[(N-allyl)Dmt-NH-propyl]pyrazinone]
Kb (δ-opioid receptor [1]): 269 nM | IC50 (δ-opioid receptor [1]; Table 4, agonism, read-out: MVD): > 10000 nM | Ki (μ-opioid receptor [2]): 12.4 ± 1.1 nM | Ki(δ)/Ki(μ) (μ-opioid receptor [2]; Table 3): 4 | Kb (μ-opioid receptor [3]): 67.6 nM | IC50 (μ-opioid receptor [3]; Table 4, agonism, read-out: GPI): > 10000 nM | pA2(μ)/pA2(δ) (μ-opioid receptor [3]; Table 4, selectivity of antagonism): 4 | Ki (δ-opioid receptor [4]): 51.5 ± 4.1 nM

Cc1cc(O)cc(C)c1CC(N)C(=O)N1Cc2ccccc2CC1C(=O)NCCCCNC(=O)C1Cc2ccccc2CN1C(=O)C(N)Cc1c(C)cc(O)cc1C (stereo not drawn) [Compound 18, 1,4-Bis(Dmt-Tic-amino)butane]
IC50 (δ-opioid receptor [1]): > 10000 nM | MVD Antagonist pA2 (nM), value in parentheses (Ke) (δ-opioid receptor [1]; [5]): 0.0309 nM | Ki (μ-opioid receptor [2]): 5.72 ± 0.22 nM | IC50 (μ-opioid receptor [3]): > 10000 nM | GPI Antagonist pA2 (nM), value in parentheses (Ke) (μ-opioid receptor [3]; Table 2): 102 nM | Ki (δ-opioid receptor [4]): 0.124 ± 0.016 nM | Ki(μ)/Ki(δ) (δ-opioid receptor [4]; Table 1, selectivity ratio): 46

Cc1cc(O)cc(C)c1CC(N)C(=O)N1Cc2ccccc2CC1C(=O)NCc1[nH]c(=O)c(CNC(=O)C2Cc3ccccc3CN2C(=O)C(N)Cc2c(C)cc(O)cc2C)nc1C (centres unmarked) (as salt: HCl) [Compound 8]
melting point: 224 to 226 °C (dec.)

3-(Dmt-Tic-NH-propyl)-6-(Dmt-Tic-NH-butyl)-2(1H)-pyrazinone [Compound 12]
IC50 (δ-opioid receptor [1]; [6]): > 10000 nM | MVD Antagonist pA2 (δ-opioid receptor [1]; Table 2): 10.60 | MVD Antagonist pA2 (nM), value in parentheses (Ke) (δ-opioid receptor [1]; [5]): 0.0251 nM | Ki (μ-opioid receptor [2]; [7]): 1.56 ± 0.11 nM | IC50 (μ-opioid receptor [3]; [8]): > 10000 nM | Ki (δ-opioid receptor [4]; [9]): 0.16 ± 0.025 nM | Ki(μ)/Ki(δ) (δ-opioid receptor [4]; Table 1, selectivity ratio): 10

Cc1cc(O)cc(C)c1CC(N)C(=O)N1Cc2ccccc2CC1C(=O)NCc1[nH]c(=O)c(CNC(=O)C2Cc3ccccc3CN2C(=O)C(N)Cc2c(C)cc(O)cc2C)nc1C (centres unmarked) [Compound 8]
MVD Antagonist pA2 (nM), value in parentheses (Ke) (δ-opioid receptor [1]): 11.22 (0.006) nM | IC50 (δ-opioid receptor [1]; read-out: MVD agonist IC50): > 10000 nM | Ki (μ-opioid receptor [2]): 3.76 ± 0.3 nM | IC50 (μ-opioid receptor [3]; read-out: GPI agonist IC50): > 10000 nM | Ki (δ-opioid receptor [4]): 0.163 ± 0.018 nM | Ki(μ)/Ki(δ) (δ-opioid receptor [4]): 23

C=CCN[C@@H](Cc1ccc(O)cc1)C(=O)N1CCC[C@H]1C(=O)N[C@@H](Cc1ccccc1)C(=O)N[C@@H](Cc1ccccc1)C(N)=O [Compound 29, [N-allyl]EM-2]
Ki(δ)/Ki(μ) (μ-opioid receptor [2]; Table 3): 57 | Ki (μ-opioid receptor [2]; Table 3, versus [3H]DAMGO, rat brain synaptosomes, read-out: Ki(μ)): 130 ± 9.27 nM | Ki (δ-opioid receptor [4]; Table 3, versus [3H]DPDPE, rat brain synaptosomes, read-out: Ki(δ)): 7360 ± 259 nM

Cc1cc(O)cc(C)c1C[C@H](N)C(=O)N1Cc2ccccc2C[C@H]1C(=O)O [H-Dmt-Tic-OH, reference compound] (H-[Dmt]-[Tic]-OH)
MVD agonist IC50, nM (δ-opioid receptor [1]; Table 2, inhibition of electrically evoked contraction): none

Cc1cc(O)cc(C)c1CC(N)C(=O)N1Cc2ccccc2CC1C(=O)NCCCCNC(=O)C1Cc2ccccc2CN1C(=O)C(N)Cc1c(C)cc(O)cc1C (stereo not drawn) (as salt: HCl) [Compound 18, 1,4-Bis(Dmt-Tic-amino)butane]
melting point: 215 to 217 °C

3,6-Bis(Dmt-Tic-NH-propyl)˜2(1H)-pyrazinone [Compound 10]
IC50 (δ-opioid receptor [1]; [6]): > 10000 nM | MVD Antagonist pA2 (δ-opioid receptor [1]; Table 2): 10.56 | MVD Antagonist pA2 (nM), value in parentheses (Ke) (δ-opioid receptor [1]; [5]): 0.0275 nM | Ki (μ-opioid receptor [2]; [7]): 3.08 ± 0.17 nM | IC50 (μ-opioid receptor [3]; [8]): 7020 ± 2470 nM | Ki (δ-opioid receptor [4]; [9]): 0.155 ± 0.016 nM | Ki(μ)/Ki(δ) (δ-opioid receptor [4]; Table 1, selectivity ratio): 20

3-(Dmt-Tic-NH-butyl)-6-(Dmt-Tic-NH-propyl)-2(1H)-pyrazinone [Compound 13]
IC50 (δ-opioid receptor [1]; [6]): > 10000 nM | MVD Antagonist pA2 (δ-opioid receptor [1]; Table 2): 10.47 | MVD Antagonist pA2 (nM), value in parentheses (Ke) (δ-opioid receptor [1]; [5]): 0.0339 nM | Ki (μ-opioid receptor [2]; [7]): 2.28 ± 0.03 nM | IC50 (μ-opioid receptor [3]; [8]): > 10000 nM | GPI Antagonist pA2 (nM), value in parentheses (Ke) (μ-opioid receptor [3]; Table 2): 112 nM | GPI Antagonist pA2 (μ-opioid receptor [3]; Table 2): 6.95 | Ki (δ-opioid receptor [4]; [9]): 0.092 ± 0.01 nM | Ki(μ)/Ki(δ) (δ-opioid receptor [4]; Table 1, selectivity ratio): 25

3-(Dmt-Tic-NH-ethyl)-6-(Dmt-Tic-NH-butyl)-2(1H)-pyrazinone [Compound 14]
IC50 (δ-opioid receptor [1]; [6]): > 10000 nM | MVD Antagonist pA2 (δ-opioid receptor [1]; Table 2): 10.99 | MVD Antagonist pA2 (nM), value in parentheses (Ke) (δ-opioid receptor [1]; [5]): 0.0102 nM | Ki (μ-opioid receptor [2]; [7]): 1.37 ± 0.13 nM | IC50 (μ-opioid receptor [3]; [8]): > 10000 nM | Ki (δ-opioid receptor [4]; [9]): 0.107 ± 0.007 nM | Ki(μ)/Ki(δ) (δ-opioid receptor [4]; Table 1, selectivity ratio): 13

3,6-Bis(Dmt-Tic-NH-butyl)-2(1H)-pyrazinone [Compound 11]
IC50 (δ-opioid receptor [1]; [6]): > 10000 nM | MVD Antagonist pA2 (δ-opioid receptor [1]; Table 2): 11.06 | MVD Antagonist pA2 (nM), value in parentheses (Ke) (δ-opioid receptor [1]; [5]): 0.0871 nM | Ki (μ-opioid receptor [2]; [7]): 1.74 ± 0.14 nM | IC50 (μ-opioid receptor [3]; [8]): > 10000 nM | Ki (δ-opioid receptor [4]; [9]): 0.323 ± 0.007 nM | Ki(μ)/Ki(δ) (δ-opioid receptor [4]; Table 1, selectivity ratio): 5

Cc1cc(O)cc(C)c1CC(N)C(=O)N1Cc2ccccc2CC1C(=O)NCCc1cnc(CCNC(=O)C2Cc3ccccc3CN2C(=O)C(N)Cc2c(C)cc(O)cc2C)c(=O)[nH]1 (stereo not drawn) [Compound 9, 3,6-Bis(Dmt-Tic-NH-ethyl)-2(1H)-pyrazinone]
IC50 (δ-opioid receptor [1]; [6]): > 10000 nM | MVD Antagonist pA2 (δ-opioid receptor [1]; Table 2): 10.73 | MVD Antagonist pA2 (nM), value in parentheses (Ke) (δ-opioid receptor [1]; [5]): 0.0186 nM | Ki (μ-opioid receptor [2]; [7]): 2.83 ± 0.12 nM | IC50 (μ-opioid receptor [3]; [8]): > 10000 nM | GPI Antagonist pA2 (nM), value in parentheses (Ke) (μ-opioid receptor [3]; Table 2): 165 nM | GPI Antagonist pA2 (μ-opioid receptor [3]; Table 2): 6.78 | Ki (δ-opioid receptor [4]; [9]): 0.095 ± 0.0004 nM | Ki(μ)/Ki(δ) (δ-opioid receptor [4]; Table 1, selectivity ratio): 30

Cc1cc(O)cc(C)c1CC(N)C(=O)N1Cc2ccccc2CC1C(=O)NCCCCCCNC(=O)C1Cc2ccccc2CN1C(=O)C(N)Cc1c(C)cc(O)cc1C (stereo not drawn) [Compound 19, 1,6-Bis(Dmt-Tic-amino)hexane]
IC50 (δ-opioid receptor [1]): > 10000 nM | MVD Antagonist pA2 (nM), value in parentheses (Ke) (δ-opioid receptor [1]; [5]): 0.024 nM | Ki (μ-opioid receptor [2]): 1.79 ± 0.08 nM | Ki (δ-opioid receptor [4]): 0.129 ± 0.03 nM

Cc1cc(O)cc(C)c1CC(C(=O)N1Cc2ccccc2CC1C(=O)NCCCCCCNC(=O)C1Cc2ccccc2CN1C(=O)C(Cc1c(C)cc(O)cc1C)N(C)C)N(C)C (stereo not drawn) [Compound 21, 1,6-Bis(N,N-Dimethyl-Dmt-Tic-NH)-hexane]
IC50 (δ-opioid receptor [1]): > 10000 nM | MVD Antagonist pA2 (nM), value in parentheses (Ke) (δ-opioid receptor [1]; [5]): 0.0052 nM | Ki (μ-opioid receptor [2]): 2.21 ± 0.08 nM | IC50 (μ-opioid receptor [3]): > 10000 nM | Kb (μ-opioid receptor [3]): 4 nM | Ki (δ-opioid receptor [4]): 0.06 ± 0.01 nM | Ki(μ)/Ki(δ) (δ-opioid receptor [4]; Table 1, selectivity ratio): 37

Cc1cc(O)cc(C)c1CC(N)C(=O)N1Cc2ccccc2CC1C(=O)NCCCCCCCCCCNC(=O)C1Cc2ccccc2CN1C(=O)C(N)Cc1c(C)cc(O)cc1C (centres unmarked) [Compound 20, 1,10-Bis(Drat-Tic-amino)decane]
IC50 (δ-opioid receptor [1]): > 10000 nM | MVD Antagonist pA2 (nM), value in parentheses (Ke) (δ-opioid receptor [1]; [5]): 0.0107 nM | Ki (μ-opioid receptor [2]): 4.86 ± 0.41 nM | IC50 (μ-opioid receptor [3]): 5420 ± 1840 nM | Ki (δ-opioid receptor [4]): 1.53 ± 0.16 nM | Ki(μ)/Ki(δ) (δ-opioid receptor [4]; Table 1, selectivity ratio): 3

C=CCN(CC=C)[C@@H](Cc1ccc(O)cc1)C(=O)N1CCC[C@H]1C(=O)N[C@@H](Cc1ccccc1)C(=O)N[C@@H](Cc1ccccc1)C(N)=O [Compound 28, [N,N-Diallyl-Tyr^1]EM-2]
Ki (μ-opioid receptor [2]): 1050 ± 175 nM | Ki(δ)/Ki(μ) (μ-opioid receptor [2]; Table 3): 6 | Ki (δ-opioid receptor [4]): 5760 ± 1220 nM

C=CCN(CC=C)[C@@H](Cc1c(C)cc(O)cc1C)C(=O)N1CCC[C@H]1C(=O)N[C@@H](Cc1ccccc1)C(=O)N[C@@H](Cc1ccccc1)C(N)=O [Compound 30, [N,N-(allyl)2Dmt^1]EM-2]
Ki(δ)/Ki(μ) (μ-opioid receptor [2]; Table 3): 108 | GPI pA2 (μ-opioid receptor [3]; Table 4, μ antagonism): None
